Data: publication PMC4484629, “Targeting of anti-citrullinated protein/peptide antibodies in rheumatoid arthritis using peptides mimicking endogenously citrullinated fibrinogen antigens” (Arthritis Research & Therapy, 2015)
Values joined by “and” are separate entries in the source; they are usually repeats but may differ in a detail not shown here. Identical values can stand only once. Where a SMILES comes first, the peptide text is derived from it. [ ]: non-standard residue; d: D form. Cit = NC(=O)NCCC[C@H](N)C(=O)O

Legend:
[1] = tested on: ACPA pool I (affinity purified human anti-CCP2 IgG); experiment: ACPA competition assay: peptide pre-incubated with ACPA, then anti-CCP2 ELISA (CCPlus); type: binding; settings: for maximum ACPA blocking (inhibition of anti-CCP2 reactivity): ACPA pool I 1.2 μg/ml (8 nM IgG), peptide 0.016-320 nmol in 225 μl, 1 h room temperature before CCP2 ELISA, mean of 2-7 experiments; for IC50: ACPA pool I 1.2 μg/ml, 1 h room temperature pre-incubation, mean ± SEM, n given per value (n = 2-6), GraphPad Prism, read-out: IC50 of ACPA blocking (relative IC50)
Experimental: (§1) ACPA were affinity purified as recently described. Two different ACPA pools were prepared for the competition assays: ACPA pool I, containing autoantibodies purified from 11 plasma or serum samples (plasma n = 4, sera n = 7); and ACPA pool II, containing 39 plasma or serum samples (plasma n = 38, serum n = 1). Before pooling, each purified ACPA sample was individually tested by in house ELISA for immunoreactivity to fibrinogen Cit573 and citrullinated fibrinogen 36-52 [24]. Anti-CCP2 reactivity was determined using the Immunoscan CCPlus® assay. All pooled samples were CCP2 positive.
(§2) ACPA pools I and II were used at a concentration of 1.2 μg/ml (8 nM IgG). The autoantibodies were incubated with the fibrinogen and fibrinogen-derived peptides at room temperature for one hour. The mole quantities of peptides tested were: 0.016, 0.16, 1.6, 16, 22, 49, 60, 80, 120, 160, 216, and 320 nmol in an incubation volume of 225 μl. ACPA blocking by the fibrinogen peptides was subsequently assessed by measuring the remaining anti-CCP2 reactivity. Cit573 and Cit591 were equally combined and co-tested for ACPA blocking. Arginine peptides (573, 591, 72, and 74) were used as negative controls in all assays.
(§3) To further explore the blocking potential of Cit573, a retrieval assay was performed, that is, the ability of the peptide to compete with already CCP2-bound ACPA was tested. ACPA pool I was added to the CCP2 plate and incubated for one hour at room temperature, followed by the addition of the peptides (citrulline and unmodified peptides) at mole quantities ranging from 16 to 320 nmol. ACPA pools incubated with no peptide were defined as positive control, giving the maximum values of anti-CCP2 reactivity. Arbitrary units were calculated according to the standard curve given by the ELISA kit. Each experiment had one standard curve. Mean values were calculated and results are expressed as a function of percentage of inhibition of ACPA from the peptide amount (nmol).
(§4) Results are presented as mean ± standard error (SEM) of values (two to seven experiments per ACPA pool), and were compared using the Student’s t-test for unpaired comparisons using GraphPad Prism 6 software (La Jolla, CA, USA). Median values were also calculated in order to consider non-Gaussian distributions. As the mean and median values were generally coincident, the Mann-Whitney U test was not selected for statistical analysis. P <0.05 was assumed to denote a significant difference. Relative IC50 values (IC50 definition according to International Union of Pharmacology Committee on Receptor Nomenclature and Drug Classification – ‘the molar concentration of an antagonist that reduces the response to an agonist by 50 %’ [25]) were also calculated using GraphPad Prism 6 software. Cutoffs for the ISAC system chip data were calculated as the 98th percentile reactivity among the 461 EIRA controls investigated in parallel to the 927 RA patients.

[2] = tested on: ACPA pool II (affinity purified human anti-CCP2 IgG); experiment: as above; type: binding; settings: for maximum ACPA blocking (inhibition of anti-CCP2 reactivity): ACPA pool II 1.2 μg/ml (8 nM IgG), peptide 0.016-320 nmol in 225 μl, 1 h room temperature before CCP2 ELISA, mean of 2-7 experiments; for IC50: ACPA pool II 1.2 μg/ml, 1 h room temperature pre-incubation, mean ± SEM, n given per value (n = 2-4), GraphPad Prism, read-out: IC50 of ACPA blocking (relative IC50)
Experimental: as §1, §2, §3, §4

[3] = tested on: sera from RA patients (EIRA cohort); experiment: Peptide microarray (ImmunoCAP ISAC), immune reactivity of sera against the fibrinogen peptides; type: binding, human; settings: for positive immune reactivity among anti-CCP2-positive RA patients: 402 CCP2-positive RA sera; for positive immune reactivity among anti-CCP2-positive RA patients / positive immune reactivity among anti-CCP2-negative RA patients: cutoff 98th percentile of healthy controls; for positive immune reactivity among anti-CCP2-negative RA patients: 525 CCP2-negative RA sera; for diagnostic sensitivity among all 927 RA patients: share of sera positive, Arg control intensity subtracted, cutoff 98th percentile of 461 healthy controls (98 % specificity)
Experimental: Serum from 927 RA patients (newly diagnosed patients within 12 months of appearance of first symptoms; 402 CCP2 positive and 525 CCP2 negative) and 461 healthy controls from the Epidemiological Investigation of RA (EIRA) case-control cohort were collected. Control samples were randomly chosen from the Swedish population registry, matching for age, sex, and residential area. All serum and plasma samples were stored at −70 °C prior to analysis. All patients fulfilled the American College of Rheumatology-European League Against Rheumatism criteria for RA [20]. CCP2-positive RA individuals used for ACPA affinity purification were selected based on having high anti-CCP2 antibody levels (>300 AU/ml, Immunoscan CCPlus® assay, Euro-Diagnostica AB, Sweden). All patients gave written informed consent. This study was approved by the regional ethical committee at the Karolinska Institutet (96-174), and performed in accordance with the Declaration of Helsinki.
Peptide microarray was performed as previously described. Briefly, peptides (sequences in Table 1) were immobilized onto a chemically modified glass slide, sera from RA patients and healthy controls were applied into the reactions sites, and fluorescence intensity after incubation with anti-human IgG antibody was acquired in a laser scanner (LuxScan 10K, CapitalBio, Beijing, China). Final results for each citrullinated peptide were calculated by subtracting the intensity values of the corresponding arginine-containing control from the citrullinated peptide for all RA patients and controls. Cutoff values were determined as the 98th percentile of the healthy control responses. Microarray data are available in the ArrayExpress database under accession number [EMBL:E-MTAB-3606].
as §4

[4] = tested on: ACPA pool I bound to CCP2 plate; experiment: Retrieval assay: peptide competes with already CCP2-bound ACPA; type: binding, human; settings: ACPA pool I bound to CCP2 plate 1 h room temperature, then peptide 16-320 nmol; data not shown
Experimental: as §3

| Structure (SMILES) | IC50 [1] | IC50 [2] | ACPA binding to the CCP2 ELISA plate reverted (retrieval) [4] | maximum ACPA blocking (inhibition of anti-CCP2 reactivity) [1] | maximum ACPA blocking (inhibition of anti-CCP2 reactivity) ([1]; listed as cyclic form of the Cit573 peptide) | maximum ACPA blocking (inhibition of anti-CCP2 reactivity) [2] | positive immune reactivity among anti-CCP2-positive RA patients [3] | positive immune reactivity among anti-CCP2-negative RA patients [3] | diagnostic sensitivity among all 927 RA patients [3] |
| --- | --- | --- | --- | --- | --- | --- | --- | --- | --- |
| CC[C@H](C)[C@H](NC(=O)CN)C(=O)N[C@@H](C)C(=O)N[C@@H](CCC(=O)O)C(=O)N[C@@H](Cc1ccccc1)C(=O)N1CCC[C@H]1C(=O)N[C@@H](CO)C(=O)N[C@@H](CCCNC(N)=O)C(=O)NCC(=O)N[C@@H](CCCCN)C(=O)N[C@@H](CO)C(=O)N[C@@H](CO)C(=O)N[C@@H](CO)C(=O)N[C@@H](Cc1ccc(O)cc1)C(=O)N[C@@H](CO)C(=O)O [Cit573Lin1] (H-GIAEFPS[Cit]GKSSSYS-OH; N-terminus assumed) | 51 µM | 186 µM | – | 75% | – | 47% | – | – | – |
| C[C@H](N)C(=O)N[C@@H](CCC(=O)O)C(=O)N[C@@H](Cc1ccccc1)C(=O)N1CCC[C@H]1C(=O)N[C@@H](CO)C(=O)N[C@@H](CCCNC(N)=O)C(=O)NCC(=O)N[C@@H](CCCCN)C(=O)N[C@@H](CO)C(=O)N[C@@H](CO)C(=O)N[C@@H](CO)C(=O)O [Cit573Lin2] (H-AEFPS[Cit]GKSSS-OH; N-terminus assumed) | 123 µM | 105 µM | – | 69% | – | 40% | – | – | – |
| C[C@@H](O)[C@H](NC(=O)[C@H](CO)NC(=O)[C@H](CC(=O)O)NC(=O)CNC(=O)[C@H](CCCNC(N)=O)NC(=O)[C@H](CC(N)=O)NC(=O)[C@H](Cc1ccc(O)cc1)NC(=O)[C@H](CO)NC(=O)[C@@H](NC(=O)[C@H](CO)NC(=O)[C@H](CO)NC(=O)[C@@H](NC(=O)[C@H](Cc1ccccc1)NC(=O)[C@H](CCC(N)=O)NC(=O)[C@H](CCCCN)NC(=O)[C@@H](N)CO)[C@@H](C)O)[C@@H](C)O)C(=O)N[C@@H](Cc1ccccc1)C(=O)N[C@@H](CCC(=O)O)C(=O)N[C@@H](CO)C(=O)N[C@@H](CCCCN)C(=O)N[C@@H](CO)C(=O)O [Cit591] (H-SKQFTSSTSYN[Cit]GDSTFESKS-OH) | 194 µM | 412 µM | – | 63% | – | – | 15% and 14.7% | 6% and 6.1% | 9.8% |

More lines, main results first:

| IC50 [1] | IC50 [2] | ACPA binding to the CCP2 ELISA plate reverted (retrieval) [4] | Structure (SMILES) | maximum ACPA blocking (inhibition of anti-CCP2 reactivity) [1] | maximum ACPA blocking (inhibition of anti-CCP2 reactivity) ([1]; listed as cyclic form of the Cit573 peptide) | maximum ACPA blocking (inhibition of anti-CCP2 reactivity) [2] | positive immune reactivity among anti-CCP2-positive RA patients [3] | positive immune reactivity among anti-CCP2-negative RA patients [3] | diagnostic sensitivity among all 927 RA patients [3] |
| --- | --- | --- | --- | --- | --- | --- | --- | --- | --- |
| 28 µM | – | – | CC[C@H](C)[C@@H]1NC(=O)CNC(=O)[C@@H]2CCCN2C(=O)[C@H](Cc2c[nH]cn2)NC(=O)[C@H](Cc2c[nH]cn2)NC(=O)[C@H](CS)NC(=O)[C@H](Cc2ccccc2)NC(=O)[C@H](CCC(N)=O)NC(=O)[C@H](CCCCN)NC(=O)[C@H](CO)NC(=O)[C@H](Cc2ccc(O)cc2)NC(=O)[C@H](CO)NC(=O)[C@H](CO)NC(=O)[C@H](CO)NC(=O)[C@H](CCCCN)NC(=O)CNC(=O)[C@H](CCCNC(N)=O)NC(=O)[C@H](CO)NC(=O)[C@@H]2CCCN2C(=O)[C@H](Cc2ccccc2)NC(=O)[C@H](CCC(=O)O)NC(=O)[C@H](C)NC1=O [Cit573Cyc] (cyclo(CHHPGIAEFPS[Cit]GKSSSYSKQF)) | 92% | approximately 90% | approximately 90% | – | – | – |
| 59 µM | 548 µM | 80% | CC[C@H](C)[C@H](NC(=O)CNC(=O)[C@@H]1CCCN1C(=O)[C@H](Cc1c[nH]cn1)NC(=O)[C@@H](N)Cc1c[nH]cn1)C(=O)N[C@@H](C)C(=O)N[C@@H](CCC(=O)O)C(=O)N[C@@H](Cc1ccccc1)C(=O)N1CCC[C@H]1C(=O)N[C@@H](CO)C(=O)N[C@@H](CCCNC(N)=O)C(=O)NCC(=O)N[C@@H](CCCCN)C(=O)N[C@@H](CO)C(=O)N[C@@H](CO)C(=O)N[C@@H](CO)C(=O)N[C@@H](Cc1ccc(O)cc1)C(=O)N[C@@H](CO)C(=O)N[C@@H](CCCCN)C(=O)N[C@@H](CCC(N)=O)C(=O)N[C@@H](Cc1ccccc1)C(=O)O [Cit573] (H-HHPGIAEFPS[Cit]GKSSSYSKQF-OH) | 84% | – | Approximately 50% | 65% and 65.4% | 5% and 5.5% | 31.5% |
